In patent US12661410B2, “Compounds for targeted degradation of RET” (C4 Therapeutics, Inc., priority 2020, dated 2026):
Positions count from the first letter of the chain named. Like-named read-outs stand apart in the source and are kept apart here.

Tests used:
[1] = target: T1, RET(KD: 658-1114 G810R) (Homo sapiens, UniProt P07949, G810R); test: HiBiT-Degradation, RET G810R degradation assay (Nano-Glo HiBiT Lytic), 293T.165 cells; format: cell-based; conditions: for Emax / DC50: 6.0 hours
T1 construct: 658-1114; expressed in transfected cells; host or cells: 293T.165 (293T cells, generated in-house)
T1 sequence (P07949 658-1114 G810R): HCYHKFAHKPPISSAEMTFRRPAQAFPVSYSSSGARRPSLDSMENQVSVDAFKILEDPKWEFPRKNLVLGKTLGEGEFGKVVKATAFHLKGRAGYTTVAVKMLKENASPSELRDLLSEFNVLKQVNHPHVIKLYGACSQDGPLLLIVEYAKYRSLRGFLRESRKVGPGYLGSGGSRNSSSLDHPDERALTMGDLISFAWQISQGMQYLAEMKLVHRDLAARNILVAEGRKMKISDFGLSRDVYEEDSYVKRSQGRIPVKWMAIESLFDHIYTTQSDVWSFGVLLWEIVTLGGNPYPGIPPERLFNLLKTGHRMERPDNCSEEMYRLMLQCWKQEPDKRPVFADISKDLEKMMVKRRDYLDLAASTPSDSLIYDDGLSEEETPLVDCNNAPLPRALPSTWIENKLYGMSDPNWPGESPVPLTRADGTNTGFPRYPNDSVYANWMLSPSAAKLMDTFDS
Procedure, shortened: (§1)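 Degradation after 6 h compound exposure (top 10 μM, 11 half-log points, duplicates) measured by Nano-Glo HiBiT lytic luminescence. Cells: 293T.144 carrying wild-type and 293T.165 carrying G810R HiBiT-RET kinase domain; curves yield DC50 and Emax.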

[2] = target: T2, RET (658-1114) (Homo sapiens, UniProt P07949); test: HiBiT-Degradation, RET wild-type degradation assay (Nano-Glo HiBiT Lytic), 293T.144 cells; format: cell-based; conditions: for DC50 / Emax: 6.0 hours
T2 construct: 658-1114; expressed in transfected cells; host or cells: 293T.144 (293T cells, generated in-house)
T2 sequence (P07949 658-1114): T1 sequence (P07949 658-1114 G810R) with R153G
Procedure, shortened: as §1

[3] = % remaining protein, read-out: 293T.165 RET(KD: 658-1114 G810R) 6.0 hours (Emax)
[4] = half-maximal degradation concentration, read-out: 293T.165 RET(KD: 658-1114 G810R) 6.0 hours (DC50)
[5] = % remaining protein, read-out: 293T.144 RET (658-1114) 6.0 hours (Emax)
[6] = half-maximal degradation concentration, read-out: 293T.144 RET (658-1114) 6.0 hours (DC50)

| Emax [1, 3] [%] | DC50 [1, 4] [nM] | HiBiT-Degradation 293T.165 RET(KD: 658-1114 G810R) 6.0 hours (IP) [nM] ([1]; RET G810R) | DC50 ([1]; RET G810R, read-out: HiBiT-Degradation 293T.165 RET(KD: 658-1114 G810R) 6.0 hours (DC50)) [nM] | Emax ([1]; RET G810R, read-out: HiBiT-Degradation 293T.165 RET(KD: 658-1114 G810R) 6.0 hours (Emax)) [%] | HiBiT-Degradation 293T.144 RET (658-1114) 6.0 hours (IP) [nM] ([2]; RET wild-type) | DC50 ([2]; RET wild-type, read-out: HiBiT-Degradation 293T.144 RET (658-1114) 6.0 hours (DC50)) [nM] | Emax ([2]; RET wild-type, read-out: HiBiT-Degradation 293T.144 RET (658-1114) 6.0 hours (Emax)) [%] | 293T.165 RET(KD: 658-1114 G810R) 6.0 hours (IP) [nM] [1] | 293T.144 RET (658-1114) 6.0 hours (IP) [nM] [2] | Emax [2, 5] [%] | DC50 [2, 6] [nM] | 293T.165 RET(KD: 658-1114 G810R) 6.0 hours (Emax) ([1]; HiBiT-Degradation) | 293T.165 RET(KD: 658-1114 G810R) 6.0 hours (IP) [nM] ([1]; HiBiT-Degradation) | DC50 ([1]; HiBiT-Degradation, read-out: 293T.165 RET(KD: 658-1114 G810R) 6.0 hours (DC50)) [nM] | 293T.144 RET (658-1114) 6.0 hours (IP) [nM] ([2]; HiBiT-Degradation) | DC50 ([2]; HiBiT-Degradation, read-out: 293T.144 RET (658-1114) 6.0 hours (DC50)) [nM] | Emax ([2]; HiBiT-Degradation, read-out: 293T.144 RET (658-1114) 6.0 hours (Emax)) [%] | Compound |
| --- | --- | --- | --- | --- | --- | --- | --- | --- | --- | --- | --- | --- | --- | --- | --- | --- | --- | --- |
| < 30 | < 100 | ++++ (< 50 nM = ++++) | < 100 | < 30 | ++++ (< 50 nM = ++++) | < 50 | < 30 | – | – | – | – | – | – | – | – | – | – | CC(C)NC(=O)C1(C)CCN(c2ccc(-c3cc(-c4cnn(CCCCCCN5CCC(c6ccc7c(N8CCC(=O)NC8=O)nn(C)c7c6)CC5)c4)cn4ncc(C#N)c34)cn2)CC1 [Compound 82, 1-[5-[3-cyano-6-[1-[6-[4-[3-(2,4-dioxohexahydropyrimidin-1-yl)-1-methyl-indazol-6-yl]-1-piperidyl]hexyl]pyrazol-4-yl]pyrazolo[1,5-a]pyridin-4-yl]-2-pyridyl]-N-isopropyl-4-methyl-piperidine-4-carboxamide] |
| < 30 | < 50 | – | – | – | – | – | – | ++++ (<50 nM = ++++) | ++++ (<50 nM = ++++) | < 30 | < 50 | – | – | – | – | – | – | CCC1(C(=O)NC(C)C)CCN(c2ccc(-c3nc(-c4cnn(C5CC6(C5)CN(C(=O)CC5(O)CCN(c7ccc(NC8CCC(=O)NC8=O)cc7F)CC5)C6)c4)cn4ncc(C#N)c34)cn2)CC1 (stereo not shown) [Compound 183, 1-[5-[3-cyano-6-[1-[2-[2-[1-[4-[(2,6-dioxo-3-piperidyl)amino]-2-fluoro-phenyl]-4-hydroxy-4-piperidyl]acetyl]-2-azaspiro[3.3]heptan-6-yl]pyrazol-4-yl]pyrazolo[1,5-a]pyrazin-4-yl]-2-pyridyl]-4-ethyl-N-isopropyl-piperidine-4-carboxamide] |
| < 30 | < 50 | – | – | – | – | – | – | – | – | – | – | ++++ (< 30% = ++++) | ++++ (< 50 nM = ++++) | < 50 | ++++ (< 50 nM = ++++) | < 50 | < 30 | CC(C)NC(=O)C1(C)CCN(c2ccc(-c3cc(-c4cnn([C@H]5CC[C@H](CCN6CCC(c7ccc(NC8CCC(=O)NC8=O)cc7F)CC6)CC5)c4)cn4ncc(C#N)c34)cn2)CC1 (stereo partly shown) [Compound 34, 1-(5-(3-Cyano-6-(1-((1r,4r)-4-(2-(4-(4-((2,6-dioxopiperidin-3-yl)amino)-2-fluorophenyl)piperidin-1-yl)ethyl)cyclohexyl)-1H-pyrazol-4-yl)pyrazolo[1,5-a]pyridin-4-yl)pyridin-2-yl)-N-isopropyl-4-methylpiperidine-4-carboxamide] |
| < 30 | < 50 | – | – | – | – | – | – | ++++ (<50 nM = ++++) | ++++ (<50 nM = ++++) | < 30 | < 50 | – | – | – | – | – | – | CCC1(C(=O)NC(C)(C)C)CCN(c2ccc(-c3nc(-c4cnn([C@H]5CC[C@H](N6CCC(c7ccc(N[C@@H]8CCC(=O)NC8=O)cc7F)CC6)CC5)c4)cn4ncc(C#N)c34)cn2)CC1 (single isomer, unassigned) [Compound 146] |

| Compound | Emax [1, 3] [%] | DC50 [1, 4] [nM] | HiBiT-Degradation 293T.165 RET(KD: 658-1114 G810R) 6.0 hours (IP) [nM] ([1]; RET G810R) | DC50 ([1]; RET G810R, read-out: HiBiT-Degradation 293T.165 RET(KD: 658-1114 G810R) 6.0 hours (DC50)) [nM] | Emax ([1]; RET G810R, read-out: HiBiT-Degradation 293T.165 RET(KD: 658-1114 G810R) 6.0 hours (Emax)) [%] | HiBiT-Degradation 293T.144 RET (658-1114) 6.0 hours (IP) [nM] ([2]; RET wild-type) | DC50 ([2]; RET wild-type, read-out: HiBiT-Degradation 293T.144 RET (658-1114) 6.0 hours (DC50)) [nM] | Emax ([2]; RET wild-type, read-out: HiBiT-Degradation 293T.144 RET (658-1114) 6.0 hours (Emax)) [%] | 293T.165 RET(KD: 658-1114 G810R) 6.0 hours (IP) [nM] [1] | 293T.144 RET (658-1114) 6.0 hours (IP) [nM] [2] | Emax [2, 5] [%] | DC50 [2, 6] [nM] | 293T.165 RET(KD: 658-1114 G810R) 6.0 hours (Emax) ([1]; HiBiT-Degradation) | 293T.165 RET(KD: 658-1114 G810R) 6.0 hours (IP) [nM] ([1]; HiBiT-Degradation) | DC50 ([1]; HiBiT-Degradation, read-out: 293T.165 RET(KD: 658-1114 G810R) 6.0 hours (DC50)) [nM] | 293T.144 RET (658-1114) 6.0 hours (IP) [nM] ([2]; HiBiT-Degradation) | DC50 ([2]; HiBiT-Degradation, read-out: 293T.144 RET (658-1114) 6.0 hours (DC50)) [nM] | Emax ([2]; HiBiT-Degradation, read-out: 293T.144 RET (658-1114) 6.0 hours (Emax)) [%] |
| --- | --- | --- | --- | --- | --- | --- | --- | --- | --- | --- | --- | --- | --- | --- | --- | --- | --- | --- |
| Cn1nc(N2CCC(=O)NC2=O)c2cc(F)c(N3CCN([C@H]4CC[C@@H](n5cc(-c6cn7ncc(C#N)c7c(-c7ccc(N8C[C@H]9COC[C@@H](C8)N9Cc8ccc(=O)[nH]c8)nc7)n6)cn5)CC4)CC3)cc21 (single isomer, unassigned) [Compound 153] | < 30 | < 100 | – | – | – | – | – | – | ++++ (<50 nM = ++++) | ++++ (<50 nM = ++++) | < 30 | < 50 | – | – | – | – | – | – |
